Data as given in patent US20250171438A1 (Agios Pharmaceuticals, Inc., priority 2022, published 2025).

These compounds were tested against T1, human PAH with the R408W mutation (Homo sapiens, UniProt P00439, R408W) (assay: Cell Based Phenylalanine Flux Assay). Conditions: A375 cells expressing human R408W PAH; 24 hrs compound incubation; 13C-Tyrosine by LC-MS; average where tested multiple times; read-out: AC50.
T1 construct: expressed in transfected cells
T1 sequence (P00439 1-452 R408W): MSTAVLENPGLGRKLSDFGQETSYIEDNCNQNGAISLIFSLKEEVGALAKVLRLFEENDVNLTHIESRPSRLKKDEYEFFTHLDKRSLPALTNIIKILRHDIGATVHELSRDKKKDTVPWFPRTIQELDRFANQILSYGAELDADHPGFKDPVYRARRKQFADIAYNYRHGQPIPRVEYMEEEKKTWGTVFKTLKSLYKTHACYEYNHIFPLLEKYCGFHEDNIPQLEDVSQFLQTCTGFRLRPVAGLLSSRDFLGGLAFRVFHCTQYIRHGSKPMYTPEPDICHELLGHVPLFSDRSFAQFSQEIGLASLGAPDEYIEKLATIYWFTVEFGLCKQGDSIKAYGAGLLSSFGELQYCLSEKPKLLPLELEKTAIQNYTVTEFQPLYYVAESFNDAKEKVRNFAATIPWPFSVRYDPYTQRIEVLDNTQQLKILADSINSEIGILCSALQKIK

Row | Structure (SMILES) | AC50 [nM]
1 | O=C(c1cn(CC(F)(F)F)nc1Cl)N1CCc2[nH]cnc2[C@@H]1c1nc2c(F)cccc2s1 [Example 1763, (R)-(3-chloro-1-(2,2,2-trifluoroethyl)-1H-pyrazol-4-yl)(4-(4-fluorobenzo[d]thiazol-2-yl)-6,7-dihydro-1H-imidazo[4,5-c]pyridin-5(4H)-yl)methanone] | 1000 to 5000
2 | O=C(c1cn(CC(F)(F)F)nc1Cl)N1CCc2[nH]cnc2[C@H]1c1nc2c(F)cccc2s1 [Example 1764, (S)-(3-chloro-1-(2,2,2-trifluoroethyl)-1H-pyrazol-4-yl)(4-(4-fluorobenzo[d]thiazol-2-yl)-6,7-dihydro-1H-imidazo[4,5-c]pyridin-5(4H)-yl)methanone] | 500 to 1000
3 | O=C(c1cnn(-c2ccccn2)c1Cl)N1CCc2[nH]cnc2[C@H]1c1nc2c(F)cccc2s1 [Example 1765] | 500 to 1000
4 | O=C(c1cnn(-c2ccccn2)c1Cl)N1CCc2[nH]cnc2[C@@H]1c1nc2c(F)cccc2s1 [Example 1766, (R)-(5-chloro-1-(pyridin-2-yl)-1H-pyrazol-4-yl)(4-(4-fluorobenzo[d]thiazol-2-yl)-6,7-dihydro-1H-imidazo[4,5-c]pyridin-5(4H)-yl)methanone] | 1000 to 5000
5 | O=C(c1cn(-c2ccccn2)nc1Cl)N1CCc2[nH]cnc2[C@H]1c1nc2c(F)cccc2s1 [Example 1769] | 500 to 1000
6 | O=C(c1cn(-c2ccccn2)nc1Cl)N1CCc2[nH]cnc2[C@@H]1c1nc2c(F)cccc2s1 [Example 1770, (R)-(3-chloro-1-(pyridin-2-yl)-1H-pyrazol-4-yl)(4-(4-fluorobenzo[d]thiazol-2-yl)-6,7-dihydro-1H-imidazo[4,5-c]pyridin-5(4H)-yl)methanone] | 1000 to 5000
7 | O=C(c1oc(OCCC(F)(F)F)nc1C(F)F)N1CCc2[nH]cnc2[C@@H]1c1nc2ccccc2s1 [Example 1771, (R)-(4-(benzo[d]thiazol-2-yl)-6,7-dihydro-1H-imidazo[4,5-c]pyridin-5(4H)-yl)(4-(difluoromethyl)-2-(3,3,3-trifluoropropoxy)oxazol-5-yl)methanone] | < 500
8 | O=C(c1oc(OCCC(F)(F)F)nc1C(F)F)N1CCc2[nH]cnc2[C@H]1c1nc2ccccc2s1 [Example 1772] | < 500
9 | CC(C)(O)c1nc(C(F)F)c(C(=O)N2CCc3[nH]cnc3[C@H]2c2nc3c(F)cccc3s2)o1 [Example 1773, (S)-(4-(difluoromethyl)-2-(2-hydroxypropan-2-yl)oxazol-5-yl)(4-(4-fluorobenzo[d]thiazol-2-yl)-6,7-dihydro-1H-imidazo[4,5-c]pyridin-5(4H)-yl)methanone] | < 500
10 | CC(C)(O)c1nc(C(F)F)c(C(=O)N2CCc3[nH]cnc3[C@@H]2c2nc3c(F)cccc3s2)o1 [Example 1774, (R)-(4-(difluoromethyl)-2-(2-hydroxypropan-2-yl)oxazol-5-yl)(4-(4-fluorobenzo[d]thiazol-2-yl)-6,7-dihydro-1H-imidazo[4,5-c]pyridin-5(4H)-yl)methanone] | 1000 to 5000
11 | COCc1nc(Br)c(C(=O)N2CCc3[nH]cnc3[C@@H]2c2nc3c(F)cccc3s2)o1 [Example 1775, (R)-(4-bromo-2-(methoxymethyl)oxazol-5-yl)(4-(4-fluorobenzo[d]thiazol-2-yl)-6,7-dihydro-1H-imidazo[4,5-c]pyridin-5(4H)-yl)methanone] | 500 to 1000
12 | COCc1nc(Br)c(C(=O)N2CCc3[nH]cnc3[C@H]2c2nc3c(F)cccc3s2)o1 [Example 1776] | < 500
13 | N#Cc1nn2cc(Br)ccc2c1C(=O)N1CCc2[nH]cnc2[C@H]1c1nc2ccccc2s1 [Example 1779, (S)-3-(4-(benzo[d]thiazol-2-yl)-4,5,6,7-tetrahydro-1H-imidazo[4,5-c]pyridine-5-carbonyl)-6-bromopyrazolo[1,5-a]pyridine-2-carbonitrile] | < 500
14 | N#Cc1nn2cc(Br)ccc2c1C(=O)N1CCc2[nH]cnc2[C@@H]1c1nc2ccccc2s1 [Example 1780, (R)-3-(4-(benzo[d]thiazol-2-yl)-4,5,6,7-tetrahydro-1H-imidazo[4,5-c]pyridine-5-carbonyl)-6-bromopyrazolo[1,5-a]pyridine-2-carbonitrile] | 1000 to 5000
15 | CN(C)Cc1nc(C(F)F)c(C(=O)N2CCc3[nH]cnc3[C@H]2c2nc3ccccc3s2)o1 [Example 1781] | < 500
16 | CN(C)Cc1nc(C(F)F)c(C(=O)N2CCc3[nH]cnc3[C@@H]2c2nc3ccccc3s2)o1 [Example 1782, (R)-(4-(benzo[d]thiazol-2-yl)-6,7-dihydro-1H-imidazo[4,5-c]pyridin-5(4H)-yl)(4-(difluoromethyl)-2-((dimethylamino)methyl)oxazol-5-yl)methanone] | 500 to 1000
17 | O=C(c1oc(C2CC(F)(F)C2)nc1C(F)F)N1CCc2[nH]cnc2[C@@H]1c1nc2ccccc2s1 [Example 1785, (R)-(4-(benzo[d]thiazol-2-yl)-6,7-dihydro-1H-imidazo[4,5-c]pyridin-5(4H)-yl)(2-(3,3-difluorocyclobutyl)-4-(difluoromethyl)oxazol-5-yl)methanone] | < 500
18 | O=C(c1oc(C2CC(F)(F)C2)nc1C(F)F)N1CCc2[nH]cnc2[C@H]1c1nc2ccccc2s1 [Example 1786] | < 500
19 | Cn1nc(C(F)(F)F)cc1C(=O)N1CCc2[nH]cnc2[C@H]1c1nc2c(F)cccc2s1 [Example 1787, (S)-(4-(4-fluorobenzo[d]thiazol-2-yl)-6,7-dihydro-1H-imidazo[4,5-c]pyridin-5(4H)-yl)(1-methyl-3-(trifluoromethyl)-1H-pyrazol-5-yl)methanone] | 1000 to 5000
20 | Cn1nc(C(F)(F)F)cc1C(=O)N1CCc2[nH]cnc2[C@@H]1c1nc2c(F)cccc2s1 [Example 1788, (R)-(4-(4-fluorobenzo[d]thiazol-2-yl)-6,7-dihydro-1H-imidazo[4,5-c]pyridin-5(4H)-yl)(1-methyl-3-(trifluoromethyl)-1H-pyrazol-5-yl)methanone] | > 5000

Continued, values first:

Row | AC50 [nM] | Structure (SMILES)
21 | 1000 to 5000 | O=C(c1nnc(-c2ccc(C(F)(F)F)cc2)o1)N1CCc2[nH]cnc2[C@@H]1c1nc2ccccc2s1 [Example 1767, (R)-(4-(benzo[d]thiazol-2-yl)-6,7-dihydro-1H-imidazo[4,5-c]pyridin-5(4H)-yl)(5-(4-(trifluoromethyl)phenyl)-1,3,4-oxadiazol-2-yl)methanone]
22 | 500 to 1000 | O=C(c1nnc(-c2ccc(C(F)(F)F)cc2)o1)N1CCc2[nH]cnc2[C@H]1c1nc2ccccc2s1 [Example 1768]
23 | < 500 | O=C(c1nnc(-c2cnn(C(F)F)c2)o1)N1CCc2[nH]cnc2[C@H]1c1nc2ccccc2s1 [Example 1777]
24 | > 5000 | O=C(c1nnc(-c2cnn(C(F)F)c2)o1)N1CCc2[nH]cnc2[C@@H]1c1nc2ccccc2s1 [Example 1778, (R)-(4-(benzo[d]thiazol-2-yl)-6,7-dihydro-1H-imidazo[4,5-c]pyridin-5(4H)-yl)(5-(1-(difluoromethyl)-1H-pyrazol-4-yl)-1,3,4-oxadiazol-2-yl)methanone]
25 | < 500 | Cc1cc(F)ccc1-c1nnc(C(=O)N2CCc3[nH]cnc3[C@H]2c2nc3ccccc3s2)o1 [Example 1783]
26 | > 5000 | Cc1cc(F)ccc1-c1nnc(C(=O)N2CCc3[nH]cnc3[C@@H]2c2nc3ccccc3s2)o1 [Example 1784, (R)-(4-(benzo[d]thiazol-2-yl)-6,7-dihydro-1H-imidazo[4,5-c]pyridin-5(4H)-yl)(5-(4-fluoro-2-methylphenyl)-1,3,4-oxadiazol-2-yl)methanone]
27 | 1000 to 5000 | O=C(c1nnc(OCCC(F)(F)F)o1)N1CCc2[nH]cnc2[C@@H]1c1nc2ccccc2s1 [Example 1789, (R)-(4-(benzo[d]thiazol-2-yl)-6,7-dihydro-1H-imidazo[4,5-c]pyridin-5(4H)-yl)(5-(3,3,3-trifluoropropoxy)-1,3,4-oxadiazol-2-yl)methanone]
28 | 500 to 1000 | O=C(c1nnc(OCCC(F)(F)F)o1)N1CCc2[nH]cnc2[C@H]1c1nc2ccccc2s1 [Example 1790]
29 | 1000 to 5000 | O=C(c1nnc(-n2cccn2)o1)N1CCc2[nH]cnc2[C@@H]1c1nc2ccccc2s1 [Example 1791, (R)-(5-(1H-pyrazol-1-yl)-1,3,4-oxadiazol-2-yl)(4-(benzo[d]thiazol-2-yl)-6,7-dihydro-1H-imidazo[4,5-c]pyridin-5(4H)-yl)methanone]
30 | < 500 | O=C(c1nnc(-n2cccn2)o1)N1CCc2[nH]cnc2[C@H]1c1nc2ccccc2s1 [Example 1792]
31 | < 500 | O=C(c1nnc(-c2cnn(CC(F)(F)F)c2)o1)N1CCc2[nH]cnc2[C@H]1c1nc2ccccc2s1 [Example 1793, [(4S)-4-(1,3-benzothiazol-2-yl)-1,4,6,7-tetrahydroimidazo[4,5-c]pyridin-5-yl]-[5-[1-(2,2,2-trifluoroethyl)pyrazol-4-yl]-1,3,4-oxadiazol-2-yl]methanone]
32 | 1000 to 5000 | O=C(c1nnc(-c2cnn(CC(F)(F)F)c2)o1)N1CCc2[nH]cnc2[C@@H]1c1nc2ccccc2s1 [Example 1794, [(4R)-4-(1,3-benzothiazol-2-yl)-1,4,6,7-tetrahydroimidazo[4,5-c]pyridin-5-yl]-[5-[1-(2,2,2-trifluoroethyl)pyrazol-4-yl]-1,3,4-oxadiazol-2-yl]methanone]
33 | < 500 | O=C(c1oc(-c2ccccn2)nc1C(F)F)N1CCc2[nH]cnc2[C@H]1c1nc2ccccc2s1 [Example 1795]
34 | < 500 | O=C(c1oc(-c2ccccn2)nc1C(F)F)N1CCc2[nH]cnc2[C@@H]1c1nc2ccccc2s1 [Example 1796, (R)-(4-(benzo[d]thiazol-2-yl)-6,7-dihydro-1H-imidazo[4,5-c]pyridin-5(4H)-yl)(4-(difluoromethyl)-2-(pyridin-2-yl)oxazol-5-yl)methanone]
